Measured values as given in publication PMC8151276, “An Integrated Approach toward NanoBRET Tracers for Analysis of GPCR Ligand Engagement” (Molecules, 2021).

Experiments:
[1] = molecular target: T1, HRH2 (Homo sapiens, UniProt P25021); assay: NanoBRET screen HiBiT-HRH2 in HEK293; assay type: binding; details: HRH2
T1 construct: purchased Promega (in-house HiBiT-GPCR construct library, NanoBRET)
Procedure: (§1) Each tracer candidate was screened across the entire library of HiBiT-GPCR constructs using NanoBRET as the detection modality. As depicted in Figure 4A, the specificity of interactions was evaluated through decrease in BRET due to competitive displacement of a bound tracer by excess parental compound. Each tracer was analyzed for binding to each HiBiT-GPCR fusion in the absence and in the presence of competing parental compound. Briefly, HEK293 cells were transfected with HiBiT-GPCR constructs diluted into promoterless DNA to reduce expression and maximize translocation to the cell surface. Each tracer candidate was then screened at concentrations of 1 μM and 0.1 μM across cells expressing these fusions. Cells were treated for 1.5 h with tracer either alone or in the presence of 20 μM competing parental compound (i.e., control). BRET was measured upon addition of purified LgBiT and subsequent complementation with HiBiT genetically fused to a GPCR. The specificity of interactions was assessed through a decrease in BRET signal due to competitive displacement of the bound tracer. To further gauge the robustness of these interactions, the fold response over the control (i.e., BRETtracer/BRETcontrol) was calculated. We chose a 1.5-fold response, which translates to ≥7-fold signal over noise as the minimal threshold required to score an interaction as positive. […]. Below we highlight the screening results obtained for our exemplary fluorescent tracers based on Clozapine, Amitriptyline and AZD1283.
(§2) HiBiT-GPCR DNA constructs were diluted in 10 mM Tris pH 8 to a final concentration of 0.01 μg/μL, arrayed in 96-well plates and stored at −20 °C. For transfection, HEK293 cells were suspended in Opti-MEM (without phenol red) supplemented with 2% fetal bovine serum (Seradigm) and 100 units/mL penicillin–streptomycin (Gibco) at a final concentration of 220,000 cells/mL and dispensed into white 96-well plates at 90 μL/well. Subsequent transfections and screens were carried using an Agilent Bravo Automated Liquid Handling Platform. First, the 96-well HiBiT DNA arrays were diluted 25-fold in Opti-MEM (without serum or phenol red) to a final concentration of 0.0004 μg/μL and 20 μL of the diluted DNAs were transferred into new 96-well plates. Next, promoterless carrier DNA (1 μg/μL) was diluted 25-fold (0.04 μg/μL) and then dispensed into the diluted arrays at 20 μL/well. Following brief mixing, Viafect transfection reagent (Promega) diluted 16-fold into Opti-MEM was dispensed into the plates at 40 μL/well. After mixing by pipetting, plates were incubated for 10 min on the pipetting station deck. The DNA-transfection reagent complexes were then added to plates containing cells. To facilitate the screen, 10 μL of DNA-transfection reagent complexes were added in duplicates to the top 4 and bottom 4 rows, resulting in two identical 48-well arrays per plate. Plates with transfected cells were incubated for 18–20 h at 37 °C/5% CO2. A screen of each tracer across the entire library using two different concentrations requires duplicate plates of transfected cells. Depending on the number of tracers being screened, transfections can be scaled up using the same ratios. The next day, for each tracer, four 20× screening solutions in tracer dilution buffer (Promega) were prepared: two duplicates at final concentration of 20 μM and two duplicates at a final concentration of 2 μM. A competing unmodified compound was added to one of each duplicate at a final concentration of 400 μM. The four resulting solutions were diluted 4-fold in Opti-MEM without serum or phenol red to generate 5× solutions (5 µM and 0.5 µM tracer +/− 100 μM competing compound). To screen the library, a BioTek MultiFlo FX liquid dispenser was used to dispense 22.5 µL of tracer solution to the top 4 rows and 22.5 µL tracer + competing compound solution to the 4 bottom rows. Plates were briefly mixed on an orbital shaker and incubated for 1.5 h at room temperature. […]

[2] = molecular target: T2, HCRTR2 (Homo sapiens, UniProt O43614); assay: NanoBRET screen HiBiT-HCRTR2 in HEK293; assay type: binding; details: HCRTR2
T2 construct: purchased Promega (in-house HiBiT-GPCR construct library, NanoBRET)
T2 sequence (O43614 1-444): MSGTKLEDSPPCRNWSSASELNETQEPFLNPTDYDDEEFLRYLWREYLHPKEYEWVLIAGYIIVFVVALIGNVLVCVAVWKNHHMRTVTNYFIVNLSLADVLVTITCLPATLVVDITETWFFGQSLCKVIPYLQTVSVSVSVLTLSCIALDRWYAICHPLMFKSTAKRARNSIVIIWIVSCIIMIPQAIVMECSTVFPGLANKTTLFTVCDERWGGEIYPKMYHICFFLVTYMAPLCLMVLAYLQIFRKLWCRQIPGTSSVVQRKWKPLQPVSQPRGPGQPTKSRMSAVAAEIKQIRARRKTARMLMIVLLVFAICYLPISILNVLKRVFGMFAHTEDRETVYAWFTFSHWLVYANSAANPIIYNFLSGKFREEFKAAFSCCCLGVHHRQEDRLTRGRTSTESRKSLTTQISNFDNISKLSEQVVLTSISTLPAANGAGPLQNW
Procedure: as §1, §2

T1 sequence (P25021 whole entry): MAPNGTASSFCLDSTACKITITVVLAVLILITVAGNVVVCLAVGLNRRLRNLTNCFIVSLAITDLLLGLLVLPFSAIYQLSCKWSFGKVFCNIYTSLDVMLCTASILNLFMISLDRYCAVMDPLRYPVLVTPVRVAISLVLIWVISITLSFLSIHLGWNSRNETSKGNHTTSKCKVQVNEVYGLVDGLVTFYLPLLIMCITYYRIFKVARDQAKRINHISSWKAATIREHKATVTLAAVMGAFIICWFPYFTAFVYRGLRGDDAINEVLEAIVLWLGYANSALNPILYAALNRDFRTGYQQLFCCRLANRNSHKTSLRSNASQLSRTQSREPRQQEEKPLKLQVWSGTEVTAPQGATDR

| NanoBRET Fold Response ([1]; 0.1μM tracer) | NanoBRET Fold Response ([1]; 1μM tracer) | NanoBRET Fold Response ([2]; 0.1μM tracer) | NanoBRET Fold Response ([2]; 1μM tracer) | SMILES | NanoBRET Fold Response ([1]; 0.1μM) | NanoBRET Fold Response ([1]; 1μM) | NanoBRET Fold Response ([2]; 0.1μM) | NanoBRET Fold Response ([2]; 1μM) |
| --- | --- | --- | --- | --- | --- | --- | --- | --- |
| – | – | – | – | O=C(CCc1ccc2n1[B-](F)(F)[N+]1=C(c3ccc[nH]3)C=CC1=C2)NCc1ccc(C(=O)NCCOCCOCCNCC(O)COc2cccc3ccccc23)cc1 (centres unmarked) [Propranolol-3-NB590] | 1.12 | 0.97 | 1.09 | 1.00 |
| 0.95 | 0.89 | 1.05 | 1.16 | O=C(CCOCCOCCOCCOCCNC(=O)CCc1ccc2n1[B-](F)(F)[N+]1=C(c3ccc[nH]3)C=CC1=C2)NCCCN1CCN(C2=Nc3cc(Cl)ccc3Nc3ccccc32)CC1 [Clozapine-a-2-NB590] | – | – | – | – |
